Read-outs that look alike come from different tables or passages of the source.
Experiment: Multicenter, open-label, Phase 1a/b study of HC-7366 in subjects with advanced solid tumors (safety, PK)
Format: in vivo
Conditions: for ARAUC: accumulation ratio based on AUC0-τ; for ARAUC / CL/F / Ctrough / DAUC0-last / DAUC0-τ / DCmax / tlast / Cmax / half-life / AUC(0-t) / Vd/F / Tmax: human; for Cmax / half-life / AUC(0-t) / Vd/F / Tmax: plasma, po; for Vd/F: read-out: Vz/F
Source text: Identify the maximum tolerated dose (MTD) and/or recommended Phase 2 dose (RP2D) of HC-7366, and evaluate the safety, tolerability, and dose-limiting toxicities (DLTs) of HC-7366 using Form III of the potassium salt of the compound of formula (I) (see Example 6, also referred to within this example as HC-7366-K), in subjects with advanced solid tumors, including: • a. occurrence of DLTs • b. incidence and severity of treatment-emergent adverse events (TEAEs) and treatment related TEAEs according to National Cancer Institute Common Terminology Criteria for Adverse Events (NCI CTCAE) v 5.0 • c. incidence of TEAEs leading to premature discontinuation • d. incidence of laboratory abnormalities, based on NCI CTCAE grades of hematology, serum chemistry, and urinalysis test results • e. incidence of abnormalities observed in 12 lead ECG parameters • f. incidence of abnormalities observed in vital signs measurements
Determine plasma concentration and pharmacokinetic (PK) parameters following treatment with HC-7366 using Form III of the potassium salt of the compound of formula (I) (see Example 6, also referred to within this example as HC-7366-K).
Preliminarily assess the potential antitumor activity of HC-7366 in terms of response rate, disease stabilization, and survival outcomes by assessing: • a. Overall response rate (ORR) to HC-7366 using response evaluation criteria in solid tumors (iRECIST) • b. Duration of response (DOR) to HC-7366 using iRECIST • c. Time to treatment failure (TTF) • d. Progression free survival (PFS) using iRECIST • e. Overall survival (OS)
This is a first in human, multicenter, open label, Phase 1a and 1b dose-escalation and dose-expansion study to establish the maximum tolerated dose, recommended Phase 2 dose, and evaluate the safety and tolerability of QD oral dosing of HC 7366 in a dose escalating fashion in subjects with advanced solid tumors. Up to 40 subjects were enrolled into the Phase 1a dose-escalation part of the study. The study was conducted in the United States at approximately 7 to 10 sites.
Every effort was made to ensure approximately 50% of all subjects enrolled into Phase 1a of this study are subjects with the tumors of special interest including squamous cell carcinoma of the head and neck, colorectal cancer, non-small cell lung cancer, and transitional cell carcinoma of the bladder. […] All subjects in Phase 1b enrolled with clear cell renal cell carcinoma. The Phase 1a study followed a traditional 3+3 design. The starting dose level was 10 mg QD, escalating to 20, 40, 75, 125, and 150 mg QD as safety allows. All doses were administered in the fasting state with water at least 1 hour before food or at least 2 hours after food.
The Phase 1b dose-expansion was at a single dose level of 75 mg based on the safety, tolerability, PK/PD results from Phase 1a to obtain additional safety and preliminary efficacy information. Up to 30 subjects were enrolled in the Phase 1b portion of the study at the 75 mg dose. Replacement patients were enrolled as necessary. Subjects were dosed until unacceptable toxicity, disease progression per immune-related Response Evaluation Criteria in Solid Tumors, discontinuation of treatment for other protocol allowed reason (eg, subject refusal), any other administrative reasons, or after 2 years of treatment, whichever occurs first.
For scheduling purposes, dosing in Phase 1a and 1b occurred in 3 week cycles and computed tomography scans were conducted once every 6 weeks from Cycle 1/Day 1, with the first postbaseline scan after 6 weeks of dosing (precycle 3) until confirmed disease progression, death, start of new anticancer therapy, withdrawal of consent, or end of study, whichever occurs first.
Subjects of Phase 1a and 1b spent Cycle 1/Day 1 (C1D1) in the clinic followed by an optional overnight stay for safety monitoring and PK sampling. Subjects were hospitalized (optional) for administration of the first 2 doses: C1D1 and Cycle 1/Day 2 (C1D2). […]

[1] = multiple once daily oral 10 mg (N = 3), Cycle 1 Day 21, geometric mean
[2] = multiple once daily oral 20 mg (N = 3), Cycle 1 Day 21, geometric mean
[3] = multiple once daily oral 40 mg (N = 8), Cycle 1 Day 21, geometric mean
[4] = multiple once daily oral 75 mg (N = 7), Cycle 1 Day 21, geometric mean
[5] = multiple once daily oral 125 mg (N = 1), Cycle 1 Day 21
[6] = human subjects, multiple once daily oral administration, 10 mg
[7] = human subjects, multiple once daily oral administration, 20 mg
[8] = human subjects, multiple once daily oral administration, 40 mg
[9] = human subjects, multiple once daily oral administration, 75 mg
[10] = human subjects, multiple once daily oral administration, 125 mg (N=1)
[11] = 10 mg, multiple once daily oral 10 mg (N = 3), Cycle 1 Day 21, geometric mean
[12] = 10 mg, single oral dose 10 mg (N = 3), Cycle 1 Day 1, geometric mean
[13] = 20 mg, multiple once daily oral 20 mg (N = 3), Cycle 1 Day 21, geometric mean
[14] = 20 mg, single oral dose 20 mg (N = 3), Cycle 1 Day 1, geometric mean
[15] = 40 mg, multiple once daily oral 40 mg (N = 8), Cycle 1 Day 21, geometric mean
[16] = 40 mg, single oral dose 40 mg (N = 11), Cycle 1 Day 1, geometric mean

`CNC(=O)c1ncn2cc(-c3c(F)ccc(NS(=O)(=O)c4cc(Cl)cnc4OC)c3F)ncc12` [HC-7366, 6-(3-((5-chloro-2-methoxypyridine)-3-sulfonamido)-2,6-difluorophenyl)-N-methylimidazo[1,5-a]pyrazine-1-carboxamide] gave an ARAUC [1] of 1.45, an ARAUC [2] of 1.46 and an ARAUC [3] of 1.89. The ARAUC [4] was 1.77, the ARAUC [5] was 1.13 and the “dose proportionality of exposure (geometric mean Cmax and AUC)” value (human subjects, 10 to 75 mg, single dose and multiple once daily dosing) was “increased approximately proportional to increases in dose”. The “time by which exposure appeared to be at steady-state” value (human subjects, continuous once daily dosing, trough concentrations) was “Cycle 1 Day 8 to Day 15”, the “dose proportionality of exposure” value (human subjects, increase from 75 to 125 mg, single dose administration) was “slightly greater than dose proportional” and the “geometric mean accumulation ratio (ARAUC)” value [6] was 1.45. For the same compound, the “geometric mean linearity ratio (LR)” value [6] was 1.11, the “geometric mean accumulation ratio (ARAUC)” value [7] was 1.46 and the “geometric mean linearity ratio (LR)” value [7] was 1.14. The “geometric mean accumulation ratio (ARAUC)” value [8] was 1.89, the “geometric mean linearity ratio (LR)” value [8] was 1.11 and the “geometric mean accumulation ratio (ARAUC)” value [9] was 1.77. For the same compound, the “geometric mean linearity ratio (LR)” value [9] was 1.22, the “accumulation ratio (ARAUC)” value [10] was 1.13 and the “linearity ratio (LR)” value [10] was 0.759. It also gave a CL/F [1] of 0.457 L/h, a Ctrough [1] of 517 ng/mL and a DAUC0-last [1] of 1700 ng·h/mL/mg. For the same compound, the DAUC0-τ [1] was 2190 ng·h/mL/mg, the DCmax [1] was 198 ng/mL/mg and the tlast (multiple once daily oral 10 mg (N = 3), Cycle 1 Day 21, median) was 12.00 h. For the same compound, the CL/F [2] was 0.478 L/h, the Ctrough [2] was 674 ng/mL and the DAUC0-last [2] was 2090 ng·h/mL/mg. For the same compound, the DAUC0-τ [2] was 2090 ng·h/mL/mg, the DCmax [2] was 185 ng/mL/mg and the tlast (multiple once daily oral 20 mg (N = 3), Cycle 1 Day 21, median) was 24.00 h. For the same compound, the CL/F [3] was 0.403 L/h, the Ctrough [3] was 2360 ng/mL and the DAUC0-last [3] was 2380 ng·h/mL/mg. It also gave a DAUC0-τ [3] of 2480 ng·h/mL/mg, a DCmax [3] of 184 ng/mL/mg and a tlast (multiple once daily oral 40 mg (N = 8), Cycle 1 Day 21, median) of 24.00 h. For the same compound, the CL/F [4] was 0.402 L/h, the Ctrough [4] was 5010 ng/mL and the DAUC0-last [4] was 2210 ng·h/mL/mg. It also gave a DAUC0-τ [4] of 2490 ng·h/mL/mg, a DCmax [4] of 190 ng/mL/mg and a tlast (multiple once daily oral 75 mg (N = 7), Cycle 1 Day 21, median) of 24.00 h. The CL/F [5] was 0.311 L/h, the Ctrough [5] was 3780 ng/mL and the DAUC0-last [5] was 2080 ng·h/mL/mg. For the same compound, the DAUC0-τ [5] was 3210 ng·h/mL/mg, the DCmax [5] was 306 ng/mL/mg and the Cmax [11] was 1980 ng/mL. It also gave a half-life [11] of 9.94 h, an AUC(0-t) (10 mg, multiple once daily oral 10 mg (N = 3), Cycle 1 Day 21, geometric mean, read-out: AUC0-last) of 17000 ng·h/mL and a Vd/F [11] of 6.55 L. It also gave a Tmax (10 mg, multiple once daily oral 10 mg (N = 3), Cycle 1 Day 21, median) of 2 h, a Cmax [12] of 1450 ng/mL and a half-life [12] of 11.3 h. It also gave an AUC(0-t) (10 mg, single oral dose 10 mg (N = 3), Cycle 1 Day 1, geometric mean, read-out: AUC0-24) of 15100 ng·h/mL, an AUC(0-t) (10 mg, single oral dose 10 mg (N = 3), Cycle 1 Day 1, geometric mean, read-out: AUC0-last) of 15100 ng·h/mL and a Vd/F [12] of 8.26 L. For the same compound, the Tmax (10 mg, single oral dose 10 mg (N = 3), Cycle 1 Day 1, median) was 2 h, the Cmax [13] was 3710 ng/mL and the half-life [13] was 12.2 h. The AUC(0-t) (20 mg, multiple once daily oral 20 mg (N = 3), Cycle 1 Day 21, geometric mean, read-out: AUC0-last) was 41900 ng·h/mL, the Vd/F [13] was 8.4 L and the Tmax (20 mg, multiple once daily oral 20 mg (N = 3), Cycle 1 Day 21, median) was 2 h. For the same compound, the Cmax [14] was 2330 ng/mL, the half-life [14] was 9.99 h and the AUC(0-t) (20 mg, single oral dose 20 mg (N = 3), Cycle 1 Day 1, geometric mean, read-out: AUC0-24) was 28700 ng·h/mL. The AUC(0-t) (20 mg, single oral dose 20 mg (N = 3), Cycle 1 Day 1, geometric mean, read-out: AUC0-last) was 28700 ng·h/mL, the Vd/F [14] was 7.84 L and the Tmax (20 mg, single oral dose 20 mg (N = 3), Cycle 1 Day 1, median) was 4 h. The Cmax [15] was 7360 ng/mL, the half-life [15] was 12.4 h and the AUC(0-t) (40 mg, multiple once daily oral 40 mg (N = 8), Cycle 1 Day 21, geometric mean, read-out: AUC0-last) was 95000 ng·h/mL. It also gave a Vd/F [15] of 8.31 L, a Tmax (40 mg, multiple once daily oral 40 mg (N = 8), Cycle 1 Day 21, median) of 2 h and a Cmax [16] of 4520 ng/mL. For the same compound, the half-life [16] was 14.8 h.

Source: US20260224563A1, “CRYSTALLINE FORMS OF 6-(3-((5-CHLORO-2-METHOXYPYRIDINE)-3-SULFONAMIDO)-2,6-DIFLUOROPHENYL)-N-METHYLIMIDAZO[1,5-A]PYRAZINE-1-CARBOXAMIDE AND METHODS FOR USING THE SAME” (HIBERCELL, INC., priority 2023, published 2026)
